These results are taken from patent US7700593B2, “Imidazo- and triazolo-pyridine compounds and methods of use thereof” (Amgen Inc., priority 2006, dated 2010).

pIC50: −log10 of the molar value.

Assay [1] relates to THP1 cells. Kind of assay: Lipopolysaccharide-activated THP1 cell TNF production assay. The format is cell-based, human. As to conditions: Homo sapiens, THP-1; LPS-induced TNF-α production in THP1 cells. Put shortly:
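THP1 cells at 1E6/mL were stimulated with LPS (1 μg/mL prepared stock) alongside 3-fold serially diluted compound for 3 h at 37 °C. Secreted TNF-α was quantified by electrochemiluminescence sandwich immunoassay. Percent of DMSO control was fitted to a 4-parameter logistic equation.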

For assay [2], the target named is p38α (Homo sapiens, UniProt Q16539). Description: p38 in-vitro HTRF enzyme assay. The format is biochemical. As to conditions: IC50 value ranges. Put shortly: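 Activated recombinant human p38α with ATP and 100 nM GST-ATF2-Avitag, 1 h at RT in Tris pH 7.5/MgCl2 buffer; compound 10-point 3-fold series from about 1 μM final. HTRF 665/620 nm ratio; IC50 from 4-parameter fit, Ki via Cheng-Prusoff with experimental ATP Km.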
Sequence of p38α (Q16539 whole entry): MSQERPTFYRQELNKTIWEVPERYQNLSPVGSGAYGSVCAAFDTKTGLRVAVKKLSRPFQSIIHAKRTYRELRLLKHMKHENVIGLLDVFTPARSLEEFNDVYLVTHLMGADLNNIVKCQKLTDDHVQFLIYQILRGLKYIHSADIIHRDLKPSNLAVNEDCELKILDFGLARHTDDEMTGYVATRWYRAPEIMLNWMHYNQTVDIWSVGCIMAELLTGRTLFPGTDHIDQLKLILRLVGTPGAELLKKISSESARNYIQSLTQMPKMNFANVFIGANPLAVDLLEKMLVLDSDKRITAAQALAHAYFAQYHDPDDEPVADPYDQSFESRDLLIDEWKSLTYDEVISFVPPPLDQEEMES
In general terms: TR-FRET usually uses a lanthanide donor and a delayed reading to cut background.

Assay [3] has as its system monocytes. Kind of assay: Lipopolysaccharide-activated monocyte TNF production assay (LPS induced TNF release). The format is cell-based, human. As to conditions: Homo sapiens, Monocyte; LPS induced TNF release from monocytes; read-out: LPS induced TNFa. Put shortly:
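Adherent monocytes from human PBMCs were pretreated with compound 60 min, then stimulated with E. coli LPS (30 ng/mL stock added) for 4 h at 37 °C. Supernatant TNF-α measured by sandwich ELISA; concentration giving 50% TNF reduction derived by polynomial fit.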

For `Cc1c(F)cc(C(=O)NC2CC2)cc1-c1ccn2c(-c3ccccc3Cl)nnc2c1` [Example 51, 3-(3-(2-chlorophenyl)[1,2,4]triazolo[4,3-a]pyridin-7-yl)-N-cyclopropyl-5-fluoro-4-methylbenzamide], the pIC50 was > 7.60 in assay [1], > 7.60 in assay [2] and 7.00 to 7.60 in assay [3].
Take `Cc1ccc(C(=O)NC2CC2)cc1-c1ccn2c(N3CCCC3)nnc2c1` [Example 96, N-cyclopropyl-4-methyl-3-(3-(1-pyrrolidinyl)[1,2,4]triazolo[4,3-a]pyridin-7-yl)benzamide]: the pIC50 in assay [1] is 7.00 to 7.60; in assay [2] it was > 7.60; in assay [3], 6.00 to 6.60.
For `Cc1ccc(C(=O)NC2CC2)cc1-c1ccn2c(-c3ccc(F)cc3C)nnc2c1` [Example 15, N-cyclopropyl-3-(3-(4-fluoro-2-methylphenyl)[1,2,4]triazolo[4,3-a]pyridin-7-yl)-4-methylbenzamide] the same measures were > 7.60, > 7.60 and 7.00 to 7.60.
Regarding `Cc1ccc(C(=O)Nc2ccnn2C)cc1-c1ccn2c(C(C)C)nnc2c1` [Example 28, 4-methyl-3-(3-(1-methylethyl)[1,2,4]triazolo[4,3-a]pyridin-7-yl)-N-(1-methyl-1H-pyrazol-5-yl)benzamide], the pIC50 was 6.60 to 7.00 in assay [1], > 7.60 in assay [2] and 6.60 to 7.00 in assay [3].
With `Cc1ccc(C(=O)NC2CC2)cc1-c1ccn2c(C(F)(F)F)nnc2c1` [Example 102, N-cyclopropyl-4-methyl-3-(3-(trifluoromethyl)[1,2,4]triazolo[4,3-a]pyridin-7-yl)benzamide], the results for the pIC50 in assay [1], in assay [2] and in assay [3] were 6.00 to 6.60, 6.60 to 7.00 and 6.00 to 6.60, respectively.
With `Cc1ccc(C(=O)NC2(C)CC2)cc1-c1ccn2c(-c3ccc(F)cc3C)nnc2c1` [Example 16, 3-(3-(4-fluoro-2-methylphenyl)[1,2,4]triazolo[4,3-a]pyridin-7-yl)-4-methyl-N-(1-methylcyclopropyl)benzamide], the pIC50 in assay [1] is 6.60 to 7.00; in assay [2], 7.00 to 7.60; in assay [3] it was 6.60 to 7.00.
Take `Cc1ccc(C(=O)NC2CC2)cc1-c1ccn2c(N)nnc2c1` [Example 1, 3-(3-amino[1,2,4]triazolo[4,3-a]pyridin-7-yl)-N-cyclopropyl-4-methylbenzamide]: the pIC50 in assay [1] was 5.30 to 6.00; in assay [2], 6.00 to 6.60; in assay [3], 5.30 to 6.00.
Regarding `Cc1ccc(C(=O)NC2CC2)cc1-c1ccn2c(C3CCCC3)nnc2c1` [Example 95, 3-(3-cyclopentyl[1,2,4]triazolo[4,3-a]pyridin-7-yl)-N-cyclopropyl-4-methylbenzamide], the pIC50 in assay [1] is > 7.60; in assay [2], > 7.60; in assay [3], 7.00 to 7.60.
For `Cc1ccc(C(=O)NC2CC2)cc1-c1ccn2c(-c3ccccc3)nnc2c1` [Example 37, N-cyclopropyl-4-methyl-3-(3-phenyl[1,2,4]triazolo[4,3-a]pyridin-7-yl)benzamide], the figures for the pIC50 in assay [1], in assay [2] and in assay [3] were 6.60 to 7.00, > 7.60 and 6.00 to 6.60, respectively.
For `Cc1ccc(C(=O)NC2CC2)cc1-c1ccn2c(N3CCOCC3)nnc2c1` [Example 101, N-cyclopropyl-4-methyl-3-(3-(4-morpholinyl)[1,2,4]triazolo[4,3-a]pyridin-7-yl)benzamide], the pIC50 was 6.60 to 7.00 in assay [1], 7.00 to 7.60 in assay [2] and 6.60 to 7.00 in assay [3].
For the molecule `Cc1ccc(C(=O)NC2CC2)cc1-c1ccn2c(-c3sccc3Cl)nnc2c1` [Example 55, 3-(3-(3-chloro-2-thienyl)[1,2,4]triazolo[4,3-a]pyridin-7-yl)-N-cyclopropyl-4-methylbenzamide], the figures for the pIC50 in assay [1], in assay [2] and in assay [3] were > 7.60, > 7.60 and 7.00 to 7.60, respectively.
Take `Cc1ccc(C(=O)NC2CC2)cc1-c1ccn2c(CC(F)(F)F)nnc2c1` [Example 31, N-cyclopropyl-4-methyl-3-(3-(2,2,2-trifluoroethyl)[1,2,4]triazolo[4,3-a]pyridin-7-yl)benzamide]: the pIC50 in assay [1] was 6.60 to 7.00; in assay [2], 7.00 to 7.60; in assay [3], 6.00 to 6.60.
As to `Cc1ccc(C(=O)Nc2ccnn2C)cc1-c1ccn2c(-c3ccc(F)cc3C)ncc2c1` [Example 23, 3-(3-(4-fluoro-2-methylphenyl)imidazo[1,5-a]pyridin-7-yl)-4-methyl-N-(1-methyl-1H-pyrazol-5-yl)benzamide], the pIC50 was > 7.60 in assay [1], > 7.60 in assay [2] and 7.00 to 7.60 in assay [3].
As to `Cc1ccc(C(=O)NC2CC2)cc1-c1ccn2c(-c3ccc(F)cc3Cl)nnc2c1` [Example 42, 3-(3-(2-chloro-4-fluorophenyl)[1,2,4]triazolo[4,3-a]pyridin-7-yl)-N-cyclopropyl-4-methylbenzamide], the figures for the pIC50 in assay [1], in assay [2] and in assay [3] were 7.00 to 7.60, > 7.60 and 6.60 to 7.00, respectively.
The matching figures for `Cc1ccc(C(=O)Nc2ccnn2C)cc1-c1ccn2c(-c3cc(F)cc(F)c3)ncc2c1` [Example 8, 3-(3-(3,5-difluorophenyl)imidazo[1,5-a]pyridin-7-yl)-4-methyl-N-(1-methyl-1H-pyrazol-5-yl)benzamide]: 6.60 to 7.00, > 7.60 and 5.30 to 6.00.
For `Cc1ccc(C(=O)NC2CC2)cc1-c1ccn2c(-c3c(F)cccc3C(F)(F)F)nnc2c1` [Example 69, N-cyclopropyl-3-(3-(2-fluoro-6-(trifluoromethyl)phenyl)[1,2,4]triazolo[4,3-a]pyridin-7-yl)-4-methylbenzamide] the same measures were > 7.60, > 7.60 and 7.00 to 7.60.
The matching figures for `Cc1ccc(C(=O)NC2CC2)cc1-c1ccn2c(NC(C)C)nnc2c1` [Example 7, N-cyclopropyl-4-methyl-3-(3-((1-methylethyl)amino)[1,2,4]triazolo[4,3-a]pyridin-7-yl)benzamide]: 6.60 to 7.00, > 7.60 and 6.60 to 7.00.
In the case of `Cc1ccc(C(=O)NC2(C)CC2)cc1-c1ccn2c(-c3ccc(S(C)(=O)=O)cc3)nnc2c1` [Example 13, 4-methyl-N-(1-methylcyclopropyl)-3-(3-(4-(methylsulfonyl)phenyl)[1,2,4]triazolo[4,3-a]pyridin-7-yl)benzamide], the pIC50 in assay [1] was 6.00 to 6.60; in assay [2], 7.00 to 7.60; in assay [3] it was 6.00 to 6.60.
With `Cc1ccc(C(=O)NC2CC2)cc1-c1ccn2c(Cc3ccccc3)nnc2c1` [Example 89, N-cyclopropyl-4-methyl-3-(3-(phenylmethyl)[1,2,4]triazolo[4,3-a]pyridin-7-yl)benzamide], the pIC50 was 6.60 to 7.00 in assay [1], > 7.60 in assay [2] and 6.00 to 6.60 in assay [3].
As to `Cc1ccc(C(=O)NC2CC2)cc1-c1ccn2c(-c3c(F)cccc3Cl)nnc2c1` [Example 63, 3-(3-(2-chloro-6-fluorophenyl)[1,2,4]triazolo[4,3-a]pyridin-7-yl)-N-cyclopropyl-4-methylbenzamide], the pIC50 in assay [1], in assay [2] and in assay [3] was > 7.60 throughout.
Take `Cc1ccc(C(=O)Nc2ccnn2C)cc1-c1ccn2c(-c3ccccc3Cl)nnc2c1` [Example 3, 3-(3-(2-chlorophenyl)[1,2,4]triazolo[4,3-a]pyridin-7-yl)-4-methyl-N-(1-methyl-1H-pyrazol-5-yl)benzamide]: the pIC50 in assay [1], in assay [2] and in assay [3] was > 7.60 each time.
For `Cc1ncoc1-c1nnc2cc(-c3cc(C(=O)NC4CC4)cc(F)c3C)ccn12` [Example 60, N-cyclopropyl-3-fluoro-4-methyl-5-(3-(4-methyl-1,3-oxazol-5-yl)[1,2,4]triazolo[4,3-a]pyridin-7-yl)benzamide], the pIC50 is 6.60 to 7.00 in assay [1], > 7.60 in assay [2] and 6.60 to 7.00 in assay [3].
As for `Cc1ccc(C(=O)NC2CC2)cc1-c1ccn2c(N3CCCCC3)nnc2c1` [Example 99, N-cyclopropyl-4-methyl-3-(3-(1-piperidinyl)[1,2,4]triazolo[4,3-a]pyridin-7-yl)benzamide], the pIC50 in assay [1] was 7.00 to 7.60; in assay [2] it was > 7.60; in assay [3] it was 6.00 to 6.60.
For `Cc1ccc(C(=O)Nc2ccon2)cc1-c1ccn2c(-c3c(F)cccc3F)nnc2c1` [Example 106, 3-(3-(2,6-difluorophenyl)[1,2,4]triazolo[4,3-a]pyridin-7-yl)-N-3-isoxazolyl-4-methylbenzamide], the pIC50 in assay [1], in assay [2] and in assay [3] was > 7.60 throughout.
Consider `Cc1ccc(C(N)=O)cc1-c1ccn2c(-c3ccccc3Cl)nnc2c1` [Example 44, 3-(3-(2-chlorophenyl)[1,2,4]triazolo[4,3-a]pyridin-7-yl)-4-methylbenzamide], for which the pIC50 in assay [1] was 7.00 to 7.60; in assay [2], > 7.60; in assay [3], 6.60 to 7.00.
On to `Cc1ccc(C(=O)Nc2ccnn2C)cc1-c1ccn2c(-c3ccc(F)cc3Cl)nnc2c1` [Example 45, 3-(3-(2-chloro-4-fluorophenyl)[1,2,4]triazolo[4,3-a]pyridin-7-yl)-4-methyl-N-(1-methyl-1H-pyrazol-5-yl)benzamide], for which the values for the pIC50 in assay [1], in assay [2] and in assay [3] were > 7.60, > 7.60 and 6.60 to 7.00, respectively.
